# Key:
# Format in all cases: physicochemical
# [1] = Apparent pKa of LNP formulations, TNS fluorescence assay; settings: LNP cationic lipid/DSPC/cholesterol/DMG-PEG 50/10/38.5/1.5 mol %, pH 3 to 9
# Procedure: As reported in literature, the apparent pKa of LNP formulations correlates with the delivery efficiency of LNPs for nucleic acids in vivo. The apparent pKa of each formulation was determined using an assay based on fluorescence of 2-(p-toluidino)-6-napthalene sulfonic acid (TNS). LNP formulations comprising of cationic lipid/DSPC/cholesterol/DMG-PEG (50/10/38.5/1.5 mol %) in PBS were prepared as described above. TNS was prepared as a 300 uM stock solution in distilled water. LNP formulations were diluted to 0.1 mg/ml total lipid in 3 mL of buffered solutions containing 50 mM sodium citrate, 50 mM sodium phosphate, 50 mM sodium borate, and 30 mM sodium chloride where the pH ranged from 3 to 9. An aliquot of the TNS solution was added to give a final concentration of 0.1 mg/ml and following vortex mixing fluorescence intensity was measured at room temperature in a Molecular Devices Spectramax iD3 spectrometer using excitation and mission wavelengths of 325 nm and 435 nm. A sigmoidal best fit analysis was applied to the fluorescence data and the pKa value was measured as the pH giving rise to half-maximal fluorescent intensity.
# [2] = Lipid nanoparticle size by dynamic light scattering (Malvern Zetasizer Nano ZS); settings: LNP: cationic lipid/DSPC/cholesterol/PEG-lipid 50:10:38.5:1.5 with hEPO mRNA
# Procedure: (§1) Briefly, a cationic lipid provided herein, DSPC, cholesterol, and PEG-lipid were solubilized in ethanol at a molar ratio of 50:10:38.5:1.5, and mRNA were diluted in 10 to 50 mM citrate buffer, pH=4. The LNPs were prepared at a total lipid to mRNA weight ratio of approximately 10:1 to 30:1 by mixing the ethanolic lipid solution with the aqueous mRNA solution at a volume ratio of 1:3 using a microfluidic apparatus, total flow rate ranging from 9-30 mL/min. Ethanol were thereby removed and replaced by DPBS using dialysis. Finally, the lipid nanoparticles were filtered through a […] sterile filter.
# (§2) Lipid nanoparticle size were determined by dynamic light scattering using a Malvern Zetasizer Nano ZS (Malvern UK) using a 173° backscatter detection mode. The encapsulation efficiency of lipid nanoparticles were determined using a Quant-it Ribogreen RNA quantification assay kit (Thermo Fisher Scientific, UK) according to the manufacturer's instructions.
# [3] = Encapsulation efficiency of lipid nanoparticles, Quant-it Ribogreen RNA quantification assay; settings: LNP with hEPO mRNA
# Procedure: as §1, §2
Apparant Pka [1],polydispersity [2],size (nm) [2] [nm],Encapsulation Efficiency [3] [%],SMILES
7.57,0.138,91.83,89.7,CCCCCCCCCCCC(=O)OCC1(COC(=O)CCCCCCCCCCC)CCN(C(=O)CCN(CCO)CCCCCC)CC1 [Compound 26]
8.27,0.11,71.72,93.6,CCCCCCCCCCCC(=O)OCC1(COC(=O)CCCCCCCCCCC)CCN(C(=O)CCN(CC)CC)CC1 [Compound 27]
6.77,0.056,92.03,80.1,CCCCCCCCCCCC(=O)OCC1(COC(=O)CCCCCCCCCCC)CCN(C(=O)CCN(CCCC)CCCC)CC1 [Compound 30]
6.39,0.136,67.72,92.7,CCCCCCCCCCCC(=O)OCC1(COC(=O)CCCCCCCCCCC)CCN(C(=O)CCN(CCCCCC)CCCCCC)CC1 [Compound 31]
6.34,0.13,93.36,88.2,CCCCCCCCCC(=O)OCC1(COC(=O)CCCCCCCCC)CCN(C(=O)CCN(CCCCCC)CCCCCC)CC1 [Compound 32]
6.06,0.106,87.01,89.9,CCCCCCCCCCCCCC(=O)OCC1(COC(=O)CCCCCCCCCCCCC)CCN(C(=O)CCN(CCCCCC)CCCCCC)CC1 [Compound 33]
5.90,0.127,110.4,74.0,CCCCCCCCCCCCCCCC(=O)OCC1(COC(=O)CCCCCCCCCCCCCCC)CCN(C(=O)CCN(CCCCCC)CCCCCC)CC1 [Compound 34]
8.02,0.261,89.42,96.0,CCCCCCCCCCCC(=O)OCC1(COC(=O)CCCCCCCCCCC)CCN(C(=O)CCCN(CC)CCO)CC1 [Compound 35]
7.84,0.095,67.83,93.2,CCCCCCCCCCCC(=O)OCC1(COC(=O)CCCCCCCCCCC)CCN(C(=O)CCCN(CCC)CCO)CC1 [Compound 36]
6.04,0.386,95.98,94.9,CCCCCCCCCCCC(=O)OCC1(COC(=O)CCCCCCCCCCC)CCN(C(=O)CCCN(CCO)CCCC)CC1 [Compound 37]
7.85,0.104,73.39,93.5,CCCCCCCCCCCC(=O)OCC1(COC(=O)CCCCCCCCCCC)CCN(C(=O)CCCN(C)C)CC1 [Compound 38]
13.20,0.42,89.41,97.0,CCCCCCCCCCCC(=O)OCC1(COC(=O)CCCCCCCCCCC)CCN(C(=O)CCCN2CCCC2)CC1 [Compound 39]
9.27,0.066,84.7,92.4,CCCCCCCCCCCC(=O)OCC1(COC(=O)CCCCCCCCCCC)CCN(C(=O)CCCN2CCCCC2)CC1 [Compound 40]
~12.82,0.15,90.15,96.1,CCCCCCCCCCCC(=O)OCC1(COC(=O)CCCCCCCCCCC)CCN(C(=O)CCCN2CCCCCC2)CC1 [Compound 41]
7.45,0.298,78.03,96.1,CCCCCCCCCCCC(=O)OCC1(COC(=O)CCCCCCCCCCC)CCN(C(=O)CCCN2CCCCCCC2)CC1 [Compound 42]
6.83,0.214,89.71,69.9,CCCCCCCCCCCC(=O)OCC1(COC(=O)CCCCCCCCCCC)CCN(C(=O)CCCN2CCOCC2)CC1 [Compound 43]
7.17,0.133,85.67,98.3,CCCCCCCCCCCC(=O)OCC1(COC(=O)CCCCCCCCCCC)CCN(C(=O)CCN(CCCCC)CCCNc2c(N(C)C)c(=O)c2=O)CC1 [Compound 48]
4.76,0.291,87.3,95.8,CCCCCCCCCCCC(=O)OCC1(COC(=O)CCCCCCCCCCC)CCN(C(=O)CCN(CCCCCC)CCCNc2c(N(C)C)c(=O)c2=O)CC1 [Compound 49]
10.76,0.327,86.44,97.8,CCCCC/C=C\C/C=C\CCCCCCCC(=O)OCC1(COC(=O)CCCCCCC/C=C\C/C=C\CCCCC)CCN(C(=O)CCN2CCCC2)CC1 [Compound 50]
7.46,0.424,103.3,101.7,CCCCCCCCC(CCCCCC)COC(=O)CCCCCC(=O)OCC1(COC(=O)CCCCCC(=O)OCC(CCCCCC)CCCCCCCC)CCN(C(=O)CCN(C)C)CC1 (centres unmarked) [Compound 51]
6.20,0.47,107.3,100.4,CCCCCCCCC(CCCCCC)COC(=O)CCCCCC(=O)OCC1(COC(=O)CCCCCC(=O)OCC(CCCCCC)CCCCCCCC)CCN(C(=O)CCCN(C)C)CC1 (centres unmarked) [Compound 52]
8.09,0.316,94.1,102.1,CCCCCCCCC(CCCCCC)COC(=O)CCCCCC(=O)OCC1(COC(=O)CCCCCC(=O)OCC(CCCCCC)CCCCCCCC)CCN(C(=O)CCN2CCCC2)CC1 (centres unmarked) [Compound 53]
8.31,0.168,84.09,99.7,CCCCCCCCC(CCCCCC)COC(=O)CCCCCC(=O)OCC1(COC(=O)CCCCCC(=O)OCC(CCCCCC)CCCCCCCC)CCN(C(=O)CCN2CCCCCC2)CC1 (centres unmarked) [Compound 54]
7.25,0.247,81.29,80.6,CCCCCCCCC(CCCCCC)COC(=O)CCCCCC(=O)OCC1(COC(=O)CCCCCC(=O)OCC(CCCCCC)CCCCCCCC)CCN(C(=O)CCN2CCOCC2)CC1 (centres unmarked) [Compound 55]
11.73,0.284,83.06,101.1,CCCCCCCCC(CCCCCC)COC(=O)CCCCCC(=O)OCC1(COC(=O)CCCCCC(=O)OCC(CCCCCC)CCCCCCCC)CCN(C(=O)CCN(C)CCO)CC1 (centres unmarked) [Compound 56]
8.80,0.276,74.16,100.4,CCCCCCCCC(CCCCCC)COC(=O)CCCCCC(=O)OCC1(COC(=O)CCCCCC(=O)OCC(CCCCCC)CCCCCCCC)CCN(C(=O)CCN(CC)CCO)CC1 (centres unmarked) [Compound 57]

# Source: patent publication US20230053437A1, “LIPID COMPOUNDS AND LIPID NANOPARTICLE COMPOSITIONS” (Suzhou Abogen Biosciences Co., Ltd., priority 2020, published 2023)
